# Structures can show the parent of a compound that is named as a salt. Where two headings read alike, the source gives them in different places.
# Tests used:
# Experiment in all cases: In vitro antibacterial activity (MIC, agar dilution)
# Type in all cases: cell-based
# [1] = system: Acinetobacter calcoaceticus CMX 669; details: CMX669
# Experimental: (§1) Each plate was inoculated with 1:100 (or 1:10 for slow-growing strains, primarily Micrococcus and Streptococcus) dilutions of up to 32 different microorganisms, using a Steers replicator block calibrated to deliver approximately 10^4 colony forming units (CFUs). The inoculated plates were incubated at from about 35° C. to about 37° C. for approximately 20-24 hours. In o addition, a control plate using BHI agar containing no test compound was prepared and incubated at the beginning and at the end of each test. The quinolone antibacterial ciprofloxacin was used as a control ("Cntl").
# (§2) The MIC was defined as the lowest concentration of test compound yielding no growth (a slight haze or sparsely isolated colonies at the inoculum spot) as compared to the growth control containing no test compound.
# Candida albicans CCH 442 = details: CCH442
# Experimental: as §1, §2
# E. coli DC-2 = details: Escherichia coli, DC2
# Experimental: as §1, §2
# E. coli H560 = details: Escherichia coli
# Experimental: as §1, §2
# E. coli KNK 437 = details: Escherichia coli, KNK437
# Experimental: as §1, §2
# E. coli SS = details: Escherichia coli
# Experimental: as §1, §2
# [2] = system: Enter. aerogenes ATCC 13048; details: Klebsiella aerogenes, ATCC13048
# Experimental: as §1, §2
# [3] = system: Entero. faecium ATCC 8043; details: Enterococcus faecium, ATCC8043
# Experimental: as §1, §2
# Escherichia coli Juhl = system: Escherichia coli Juhl
# Experimental: as §1, §2
# [4] = system: Klebsiella pneumoniae ATCC 8045; details: Klebsiella pneumoniae, ATCC8045
# Experimental: as §1, §2
# M. luteus ATCC 4698 = details: Micrococcus luteus, ATCC4698
# Experimental: as §1, §2
# M. luteus ATCC 9341 = details: Micrococcus luteus, ATCC9341
# Experimental: as §1, §2
# Myco. smegmatis ATCC 114 = details: Mycolicibacterium smegmatis, ATCC114
# Experimental: as §1, §2
# [5] = system: Nocardia asteroides ATCC 9970; details: Nocardia asteroides, ATCC9970
# Experimental: as §1, §2
# P. aeruginosa 2862 = details: Pseudomonas aeruginosa
# Experimental: as §1, §2
# P. aeruginosa 5263 = details: Pseudomonas aeruginosa
# Experimental: as §1, §2
# P. aeruginosa A5007 = details: Pseudomonas aeruginosa
# Experimental: as §1, §2
# P. aeruginosa BMH 10 = details: Pseudomonas aeruginosa, BMH10
# Experimental: as §1, §2
# P. aeruginosa K799/61 = details: Pseudomonas aeruginosa
# Experimental: as §1, §2
# P. aeruginosa K799/WT = details: Pseudomonas aeruginosa
# Experimental: as §1, §2
# [6] = system: Providencia stuartii CMX 640; details: CMX640
# Experimental: as §1, §2
# Pseudomonas cepacia 296I = details: Burkholderia cepacia
# Experimental: as §1, §2
# [7] = system: Staph. aureus 1775 Cipro.R.; details: Staphylococcus aureus
# Experimental: as §1, §2
# Staph. aureus 5278 = details: Staphylococcus aureus
# Experimental: as §1, §2
# Staph. aureus 642A = details: Staphylococcus aureus
# Experimental: as §1, §2
# Staph. aureus A5177 = details: Staphylococcus aureus
# Experimental: as §1, §2
# Staph. aureus ATCC 6538P = details: Staphylococcus aureus, ATCC6538P
# Experimental: as §1, §2
# Staph. aureus CMX 553 = details: Staphylococcus aureus, CMX553
# Experimental: as §1, §2
# Staph. aureus NCTC10649 = details: Staphylococcus aureus
# Experimental: as §1, §2
# Staph. epidermidis 3519 = details: Staphylococcus epidermidis
# Experimental: as §1, §2
# [8] = system: Strep. agalactiae CMX 508; details: Streptococcus agalactiae, CMX508
# Experimental: as §1, §2
# Strep. bovis A5169 = details: Streptococcus equinus
# Experimental: as §1, §2
# [9] = system: Strep. pyogenes 2458 INDUC; details: Streptococcus pyogenes
# Experimental: as §1, §2
# [10] = system: Strep. pyogenes 930 CONST; details: Streptococcus pyogenes
# Experimental: as §1, §2
# Strep. pyogenes EES61 = details: Streptococcus pyogenes
# Experimental: as §1, §2
Structure (SMILES),MIC [2] [µg/mL],MIC (Escherichia coli Juhl) [µg/mL],MIC [4] [µg/mL],MIC (Myco. smegmatis ATCC 114) [µg/mL],MIC [5] [µg/mL],MIC (P. aeruginosa K799/61) [µg/mL],MIC [6] [µg/mL],MIC (Pseudomonas cepacia 296I) [µg/mL],MIC [7] [µg/mL],MIC (Staph. aureus 5278) [µg/mL],MIC (Staph. aureus 642A) [µg/mL],MIC (Staph. aureus A5177) [µg/mL],MIC (Staph. aureus ATCC 6538P) [µg/mL],MIC (Staph. aureus CMX 553) [µg/mL],MIC (Staph. aureus NCTC10649) [µg/mL],MIC (Staph. epidermidis 3519) [µg/mL],MIC [8] [µg/mL],MIC [9] [µg/mL],MIC [10] [µg/mL],MIC (Strep. pyogenes EES61) [µg/mL],other results
"N[C@H]1CCC[C@H]2CN(c3c(F)cn4c(=O)c(C(=O)O)cc5c4c3Oc3ccccc3-5)C[C@H]21 (relative stereo) [Example 3, 1-(3aα, 4β, 7aα-4-aminooctahydro-[1H]-isoindol-2-yl)-2-fluoro-5H-5-oxo-benzo[5.6]pyrano[2.3.4-ij]quinolizine-6-carboxylic acid hydrochloride]",25,6.2,1.56,0.78,1.56,1.56,100,> 100,3.1,0.78,0.78,0.78,0.78,0.78,0.78,0.78,0.39,0.39,0.2,0.39,"MIC ([1]; Acinetobacter calcoaceticus CMX 669, agar dilution, read-out: MIC): 12.5 µg/mL; MIC (Candida albicans CCH 442; Candida albicans CCH 442, agar dilution, read-out: MIC): > 100 µg/mL; MIC (E. coli DC-2; E. coli DC-2, agar dilution, read-out: MIC): 100 µg/mL; MIC (E. coli H560; E. coli H560, agar dilution, read-out: MIC): 6.2 µg/mL; MIC (E. coli KNK 437; E. coli KNK 437, agar dilution, read-out: MIC): 25 µg/mL; MIC (E. coli SS; E. coli SS, agar dilution, read-out: MIC): 0.78 µg/mL; MIC [3]: 1.56 µg/mL; MIC (M. luteus ATCC 4698; M. luteus ATCC 4698, agar dilution, read-out: MIC): 0.78 µg/mL; MIC (M. luteus ATCC 9341; M. luteus ATCC 9341, agar dilution, read-out: MIC): 0.39 µg/mL; MIC (P. aeruginosa 2862; P. aeruginosa 2862, agar dilution, read-out: MIC): > 100 µg/mL; MIC (P. aeruginosa 5263; P. aeruginosa 5263, agar dilution, read-out: MIC): > 100 µg/mL; MIC (P. aeruginosa A5007; P. aeruginosa A5007, agar dilution, read-out: MIC): > 100 µg/mL; MIC (P. aeruginosa BMH 10; P. aeruginosa BMH 10, agar dilution, read-out: MIC): 100 µg/mL; MIC (P. aeruginosa K799/WT; P. aeruginosa K799/WT, agar dilution, read-out: MIC): > 100 µg/mL; MIC (Strep. bovis A5169; Strep. bovis A5169, agar dilution, read-out: MIC): 0.39 µg/mL"
"O=C(O)c1cn(C2CC2)c2cc(N3CCNCC3)c(F)cc2c1=O [Ciprofloxacin, ciprofloxacin, reference compound]",0.02,0.01,0.02,0.78,12.5,0.02,0.78,3.1,> 100,0.39,0.39,0.39,0.2,0.78,0.39,0.39,0.39,0.39,0.78,0.78,"MIC ([1]; Acinetobacter calcoaceticus): 0.39 µg/mL; MIC (Candida albicans CCH 442; Candida albicans): > 100 µg/mL; MIC (E. coli DC-2): 0.2 µg/mL; MIC (E. coli H560; H560): 0.01 µg/mL; MIC (E. coli KNK 437): 0.2 µg/mL; MIC (E. coli SS): 0.005 µg/mL; MIC ([3]; Entero. faecium ATCC 8043, agar dilution, read-out: MIC): 0.39 µg/mL; MIC (M. luteus ATCC 4698): 0.78 µg/mL; MIC (M. luteus ATCC 9341): 1.56 µg/mL; MIC (P. aeruginosa 2862; 2862): 12.5 µg/mL; MIC (P. aeruginosa 5263; 5263): 12.5 µg/mL; MIC (P. aeruginosa A5007; A5007): 0.1 µg/mL; MIC (P. aeruginosa BMH 10): 0.1 µg/mL; MIC (P. aeruginosa K799/WT; K799/WT): 0.1 µg/mL; MIC (Strep. bovis A5169; A5169): 1.56 µg/mL"
